Our source for the Ambit profiling values is patent US12157741B2, “Macrocyclic inhibitors of DYRK1A” (DANA-FARBER CANCER INSTITUTE, INC., priority 2018, dated 2024).

Each structure is given as a SMILES string. Like-named read-outs stand apart in the source and are kept apart here.

For experiment [1], the target named is T1, various enzymes (Homo sapiens, UniProt O60285).
T1 sequence (O60285 1-661): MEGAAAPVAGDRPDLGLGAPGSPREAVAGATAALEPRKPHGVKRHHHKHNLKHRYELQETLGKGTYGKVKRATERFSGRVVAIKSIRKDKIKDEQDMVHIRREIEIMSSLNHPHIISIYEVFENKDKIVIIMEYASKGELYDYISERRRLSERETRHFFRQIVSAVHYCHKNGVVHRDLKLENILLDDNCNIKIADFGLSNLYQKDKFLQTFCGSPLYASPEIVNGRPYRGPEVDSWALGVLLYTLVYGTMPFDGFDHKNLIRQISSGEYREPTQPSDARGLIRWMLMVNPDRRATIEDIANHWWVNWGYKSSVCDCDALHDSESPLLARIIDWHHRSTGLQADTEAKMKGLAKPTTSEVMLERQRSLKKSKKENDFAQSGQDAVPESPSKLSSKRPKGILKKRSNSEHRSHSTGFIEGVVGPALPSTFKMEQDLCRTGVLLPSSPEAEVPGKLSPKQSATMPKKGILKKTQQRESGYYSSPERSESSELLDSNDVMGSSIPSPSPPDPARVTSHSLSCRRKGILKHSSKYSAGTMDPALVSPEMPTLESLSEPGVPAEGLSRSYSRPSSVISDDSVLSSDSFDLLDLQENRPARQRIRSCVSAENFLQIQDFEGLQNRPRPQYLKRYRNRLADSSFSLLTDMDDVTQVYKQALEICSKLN
Particulars: ARK5; 1 uM.
Description: (§1) Ambit profiling from Eurofins (formerly Discoverx) was conducted in accordance with the manufacturer's instructions.

Experiment [2] addresses various enzymes (Homo sapiens, UniProt Q9UK32). Particulars: 1 uM.
Description: as §1
Experiment [3] addresses T2, various enzymes (Homo sapiens, UniProt O75385).
T2 sequence (O75385 1-1050): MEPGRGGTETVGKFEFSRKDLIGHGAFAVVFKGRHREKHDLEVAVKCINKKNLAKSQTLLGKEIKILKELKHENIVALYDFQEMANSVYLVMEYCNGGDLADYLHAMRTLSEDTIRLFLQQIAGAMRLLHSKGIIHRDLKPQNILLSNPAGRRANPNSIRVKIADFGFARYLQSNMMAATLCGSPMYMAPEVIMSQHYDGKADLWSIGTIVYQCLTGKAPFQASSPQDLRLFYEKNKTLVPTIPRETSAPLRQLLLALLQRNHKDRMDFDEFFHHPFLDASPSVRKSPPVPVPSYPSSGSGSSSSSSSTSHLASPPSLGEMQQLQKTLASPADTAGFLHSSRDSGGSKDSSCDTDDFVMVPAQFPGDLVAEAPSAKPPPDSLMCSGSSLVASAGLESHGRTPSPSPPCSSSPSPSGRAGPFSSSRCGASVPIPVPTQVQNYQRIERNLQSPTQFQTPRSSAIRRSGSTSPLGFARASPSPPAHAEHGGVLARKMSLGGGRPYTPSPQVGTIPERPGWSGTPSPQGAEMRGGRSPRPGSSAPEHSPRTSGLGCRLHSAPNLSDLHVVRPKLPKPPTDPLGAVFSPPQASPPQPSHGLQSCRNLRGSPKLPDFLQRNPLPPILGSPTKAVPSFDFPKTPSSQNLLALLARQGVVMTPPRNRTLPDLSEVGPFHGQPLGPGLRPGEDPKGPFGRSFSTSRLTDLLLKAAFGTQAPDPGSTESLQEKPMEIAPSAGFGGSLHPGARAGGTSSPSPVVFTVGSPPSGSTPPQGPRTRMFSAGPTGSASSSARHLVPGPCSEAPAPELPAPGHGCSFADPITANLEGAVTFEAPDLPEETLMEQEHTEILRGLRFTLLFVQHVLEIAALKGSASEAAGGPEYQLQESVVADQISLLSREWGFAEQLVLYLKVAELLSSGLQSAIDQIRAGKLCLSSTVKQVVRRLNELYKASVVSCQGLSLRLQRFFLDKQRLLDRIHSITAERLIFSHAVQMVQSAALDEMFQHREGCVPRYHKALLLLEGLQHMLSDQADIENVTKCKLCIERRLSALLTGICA
The settings on record: ULK1; 1 uM.
Description: as §1

In experiment [4] the target is various enzymes (Homo sapiens, UniProt P08581). The settings on record: MET; 1 uM.
Description: as §1
Experiment [5] has as its target various enzymes (Homo sapiens, UniProt P45983). The settings on record: JNK1; 1 uM.
Description: as §1
Experiment [6] deals with various enzymes (Homo sapiens, UniProt O94804). The settings on record: LOK; 1 uM.
Description: as §1
Experiment [7] concerns the target various enzymes (Homo sapiens, UniProt Q00526). Particulars: CDK3; 1 uM.
Description: as §1
Experiment [8] deals with T3, various enzymes (Homo sapiens, UniProt Q08881).
T3 sequence (Q08881 1-620): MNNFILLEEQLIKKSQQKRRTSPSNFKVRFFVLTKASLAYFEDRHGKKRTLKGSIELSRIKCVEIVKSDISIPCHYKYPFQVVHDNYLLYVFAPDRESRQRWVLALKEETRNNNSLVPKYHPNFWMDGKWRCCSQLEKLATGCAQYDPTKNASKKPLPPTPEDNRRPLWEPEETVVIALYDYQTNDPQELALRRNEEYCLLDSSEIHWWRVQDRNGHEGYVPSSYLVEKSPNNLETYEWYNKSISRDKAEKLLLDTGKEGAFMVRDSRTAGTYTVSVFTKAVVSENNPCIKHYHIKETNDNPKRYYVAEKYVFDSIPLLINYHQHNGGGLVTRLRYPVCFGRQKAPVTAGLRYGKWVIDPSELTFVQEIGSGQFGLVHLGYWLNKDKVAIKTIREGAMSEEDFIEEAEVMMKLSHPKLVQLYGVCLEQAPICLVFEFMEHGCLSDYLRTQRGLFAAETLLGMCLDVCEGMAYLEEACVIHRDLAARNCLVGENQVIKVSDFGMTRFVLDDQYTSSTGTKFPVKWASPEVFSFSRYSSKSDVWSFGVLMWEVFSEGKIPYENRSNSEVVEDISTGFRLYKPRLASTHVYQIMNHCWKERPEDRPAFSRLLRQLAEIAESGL
Particulars: ITK; 1 uM.
Description: as §1

Sequence of various enzymes (Homo sapiens, UniProt Q9UK32) (Q9UK32 whole entry): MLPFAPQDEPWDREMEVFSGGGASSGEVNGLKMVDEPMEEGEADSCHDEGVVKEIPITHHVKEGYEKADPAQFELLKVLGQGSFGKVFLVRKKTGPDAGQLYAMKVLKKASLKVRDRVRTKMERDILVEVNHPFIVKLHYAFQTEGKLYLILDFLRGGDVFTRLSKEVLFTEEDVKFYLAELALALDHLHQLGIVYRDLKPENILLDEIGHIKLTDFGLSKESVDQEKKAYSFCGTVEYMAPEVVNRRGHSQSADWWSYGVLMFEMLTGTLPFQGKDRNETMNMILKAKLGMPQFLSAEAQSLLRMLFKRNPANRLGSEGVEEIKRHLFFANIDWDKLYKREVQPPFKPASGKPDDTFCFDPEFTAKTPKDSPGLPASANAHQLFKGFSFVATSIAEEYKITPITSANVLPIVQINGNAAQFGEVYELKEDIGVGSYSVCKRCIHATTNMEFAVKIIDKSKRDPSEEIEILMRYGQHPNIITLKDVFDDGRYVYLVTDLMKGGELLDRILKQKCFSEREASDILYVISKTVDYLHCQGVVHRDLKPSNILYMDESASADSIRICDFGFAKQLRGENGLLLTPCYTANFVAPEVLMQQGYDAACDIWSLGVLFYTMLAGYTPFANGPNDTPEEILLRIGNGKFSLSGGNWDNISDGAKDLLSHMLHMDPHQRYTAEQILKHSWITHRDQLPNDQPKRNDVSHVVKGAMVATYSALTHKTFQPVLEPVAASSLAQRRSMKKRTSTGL
Sequence of various enzymes (Homo sapiens, UniProt P08581) (P08581 25-1390): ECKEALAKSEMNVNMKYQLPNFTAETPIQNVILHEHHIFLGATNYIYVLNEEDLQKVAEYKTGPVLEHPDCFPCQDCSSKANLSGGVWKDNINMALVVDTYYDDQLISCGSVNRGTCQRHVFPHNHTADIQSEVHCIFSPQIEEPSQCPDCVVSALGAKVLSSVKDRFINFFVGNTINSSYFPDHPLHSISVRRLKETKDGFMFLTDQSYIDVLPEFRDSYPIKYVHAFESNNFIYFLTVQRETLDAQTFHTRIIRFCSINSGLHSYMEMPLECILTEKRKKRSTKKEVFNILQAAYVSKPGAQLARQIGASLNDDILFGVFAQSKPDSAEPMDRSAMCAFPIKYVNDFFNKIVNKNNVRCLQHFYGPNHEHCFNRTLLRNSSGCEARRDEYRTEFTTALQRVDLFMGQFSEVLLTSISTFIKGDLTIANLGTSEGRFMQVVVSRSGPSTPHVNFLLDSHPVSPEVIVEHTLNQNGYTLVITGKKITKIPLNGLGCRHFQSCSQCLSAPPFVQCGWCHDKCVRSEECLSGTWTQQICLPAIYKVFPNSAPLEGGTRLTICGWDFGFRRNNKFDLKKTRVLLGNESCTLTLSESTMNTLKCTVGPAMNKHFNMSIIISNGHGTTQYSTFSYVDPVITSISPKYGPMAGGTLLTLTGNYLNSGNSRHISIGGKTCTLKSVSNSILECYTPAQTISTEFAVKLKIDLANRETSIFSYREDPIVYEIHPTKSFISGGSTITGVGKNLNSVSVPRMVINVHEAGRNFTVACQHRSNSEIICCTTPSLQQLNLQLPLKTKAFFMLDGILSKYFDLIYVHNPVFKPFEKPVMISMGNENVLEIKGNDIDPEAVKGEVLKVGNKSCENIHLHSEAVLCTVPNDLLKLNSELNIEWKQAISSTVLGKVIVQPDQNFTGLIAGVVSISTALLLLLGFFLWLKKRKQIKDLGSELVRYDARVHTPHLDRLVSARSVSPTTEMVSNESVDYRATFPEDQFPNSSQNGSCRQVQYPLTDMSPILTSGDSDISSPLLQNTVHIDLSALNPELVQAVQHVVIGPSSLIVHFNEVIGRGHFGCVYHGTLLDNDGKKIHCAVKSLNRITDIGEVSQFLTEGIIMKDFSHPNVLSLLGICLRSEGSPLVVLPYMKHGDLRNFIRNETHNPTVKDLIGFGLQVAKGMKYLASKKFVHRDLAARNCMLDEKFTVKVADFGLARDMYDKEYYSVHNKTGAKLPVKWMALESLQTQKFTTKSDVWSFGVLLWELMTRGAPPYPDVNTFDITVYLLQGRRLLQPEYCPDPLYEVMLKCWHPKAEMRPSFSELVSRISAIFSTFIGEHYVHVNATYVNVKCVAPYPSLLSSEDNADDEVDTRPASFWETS
Sequence of various enzymes (Homo sapiens, UniProt O94804) (O94804 whole entry): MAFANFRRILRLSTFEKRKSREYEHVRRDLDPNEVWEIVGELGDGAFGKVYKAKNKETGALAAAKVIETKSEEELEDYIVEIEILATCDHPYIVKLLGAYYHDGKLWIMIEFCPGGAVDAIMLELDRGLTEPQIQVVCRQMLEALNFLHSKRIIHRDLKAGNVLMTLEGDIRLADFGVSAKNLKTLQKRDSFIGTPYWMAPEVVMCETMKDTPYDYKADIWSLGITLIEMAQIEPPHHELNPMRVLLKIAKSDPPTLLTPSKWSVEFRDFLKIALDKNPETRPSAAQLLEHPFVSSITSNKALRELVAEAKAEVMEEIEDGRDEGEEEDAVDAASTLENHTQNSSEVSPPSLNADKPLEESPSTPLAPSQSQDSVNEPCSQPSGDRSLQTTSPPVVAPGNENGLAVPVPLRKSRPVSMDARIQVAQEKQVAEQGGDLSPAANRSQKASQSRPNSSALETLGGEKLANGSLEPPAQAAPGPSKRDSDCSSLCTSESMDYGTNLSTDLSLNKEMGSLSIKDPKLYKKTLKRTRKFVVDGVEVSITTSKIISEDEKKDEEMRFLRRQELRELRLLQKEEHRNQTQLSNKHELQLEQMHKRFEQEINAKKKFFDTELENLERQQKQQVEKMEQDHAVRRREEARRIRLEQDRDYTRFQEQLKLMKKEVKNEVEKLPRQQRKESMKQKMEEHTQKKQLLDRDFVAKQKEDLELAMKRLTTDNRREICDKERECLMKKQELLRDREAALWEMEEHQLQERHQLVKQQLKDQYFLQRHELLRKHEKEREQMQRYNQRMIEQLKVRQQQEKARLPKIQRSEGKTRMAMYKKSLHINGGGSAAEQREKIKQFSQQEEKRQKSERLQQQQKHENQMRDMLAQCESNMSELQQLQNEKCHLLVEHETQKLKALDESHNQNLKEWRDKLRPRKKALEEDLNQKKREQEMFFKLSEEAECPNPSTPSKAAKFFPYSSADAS
Sequence of various enzymes (Homo sapiens, UniProt Q00526) (Q00526 whole entry): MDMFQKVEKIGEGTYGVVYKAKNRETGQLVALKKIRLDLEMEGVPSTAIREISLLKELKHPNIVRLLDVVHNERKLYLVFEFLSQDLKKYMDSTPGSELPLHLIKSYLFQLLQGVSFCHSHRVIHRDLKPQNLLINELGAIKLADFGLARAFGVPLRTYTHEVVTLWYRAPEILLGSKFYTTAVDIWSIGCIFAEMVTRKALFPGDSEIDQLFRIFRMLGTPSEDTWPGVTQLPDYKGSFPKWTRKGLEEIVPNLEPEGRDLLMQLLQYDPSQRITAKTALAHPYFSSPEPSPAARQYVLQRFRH
Sequence of various enzymes (Homo sapiens, UniProt P45983) (P45983 whole entry): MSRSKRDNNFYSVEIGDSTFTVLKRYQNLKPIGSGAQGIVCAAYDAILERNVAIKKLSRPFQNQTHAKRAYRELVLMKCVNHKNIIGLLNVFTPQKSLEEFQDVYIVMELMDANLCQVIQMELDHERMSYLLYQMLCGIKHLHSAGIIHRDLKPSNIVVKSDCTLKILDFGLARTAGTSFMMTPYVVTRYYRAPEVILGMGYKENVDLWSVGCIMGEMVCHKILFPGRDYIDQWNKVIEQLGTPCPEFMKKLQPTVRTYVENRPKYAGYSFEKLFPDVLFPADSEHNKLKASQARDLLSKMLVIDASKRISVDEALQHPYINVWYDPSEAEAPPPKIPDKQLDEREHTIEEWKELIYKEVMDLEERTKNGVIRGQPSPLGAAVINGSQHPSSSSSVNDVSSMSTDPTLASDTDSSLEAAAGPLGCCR

As for `CN1Cc2nn(C)cc2-c2cnc3[nH]cc(c3c2)-c2cnn(c2)CCCC1=O` [Compound 41, (Z)-31,5-dimethyl-11H,21H,31H-5-aza-2(3,5)-pyrrolo[2,3-b]pyridina-1(4,1),3(4,3)-dipyrazolacyclononaphan-6-one], the Ambit profiling is reported as 8.9 at various enzymes [1]; 5.6 on various enzymes [2] (RSK4(Kin.Dom.1-N-terminal)); 63 on various enzymes [2] (RSK4(Kin.Dom.2-C-terminal)); 22 on various enzymes [3]; 30 at various enzymes [4]; 0.1 on various enzymes [5]. For the same molecule, the Ambit profiling at various enzymes [6] turned out to be 74; at various enzymes [7], 50; at various enzymes [8], 65.

Regarding `CN1Cc2nn(C)c(C#N)c2-c2cnc3[nH]cc(c3c2)-c2cn(nc2C(F)(F)F)CCCC1=O` [Compound 48, (Z)-31,5-dimethyl-6-oxo-13-(trifluoromethyl)-11H,21H,31H-5-aza-2(3,5)-pyrrolo[2,3-b]pyridina-1(4,1),3(4,3)-dipyrazolacyclononaphane-35-carbonitrile], the Ambit profiling on various enzymes [1] is given as 100; at various enzymes [2] (RSK4(Kin.Dom.1-N-terminal)) it was 7.5; at various enzymes [2] (RSK4(Kin.Dom.2-C-terminal)), 69; on various enzymes [3], 100; on various enzymes [4], 48; at various enzymes [5], 20. For the same molecule, the figures for the Ambit profiling at various enzymes [6], on various enzymes [7] and at various enzymes [8] were 52, 100 and 100, respectively.
